In patent US8299079B2, “Preparations and methods for ameliorating or reducing presbyopia” (priority 2009, dated 2012):
Where “and” joins values, the source holds several entries; their conditions need not be identical. Equal values may be shown once.

What was measured:
[1] = system: near visual acuity (VA) for patients suffering from presbyopia; assay: Preliminary evaluation: near visual acuity after pilocarpine alone or with brimonidine; assay type: in vivo, human
Procedure: (§1) The effect of pilocarpine alone or in combination with brimonidine on near visual acuity (VA) for patients suffering from presbyopia was evaluated. Initially, 10 patients were selected for preliminary evaluation. Each patient was administered with one drop of a formulation containing 0.25%, 0.5%, or 1.0% pilocarpine with or without one drop of a formulation containing 0.2% brimonidine. Thus, the following six dosages were initially tested: • 1. 0.25% pilocarpine, • 2. 0.5% pilocarpine, • 3. 1.0% pilocarpine, • 4. 0.25% pilocarpine and 0.2% brimonidine, • 5. 0.5% pilocarpine and 0.2% brimonidine, and • 6. 1.0% pilocarpine and 0.2% brimonidine.

[2] = system: pupil diameter of patients suffering from presbyopia; assay: Preliminary evaluation: pupil diameter after pilocarpine alone or with brimonidine; assay type: in vivo, human
Procedure: as §1

In the case of `CC[C@@H]1C(=O)OC[C@@H]1Cc1cncn1C` [Pilo Alone, pilocarpine], the “duration of effect on visual acuity (wear out)” value ([1]; 1, 2, 4 hrs after administration) is reported as “appears to wear out fairly quickly”, the “nVA” value ([1]; Pilo alone 0.25%, 2 hrs) is reported as 3 J and 5 J and 6 J and the “nVA” value ([1]; Pilo alone 0.5%, 1 hr) is reported as 3 J and 6 J and 5 J. For the same compound, the “nVA” value ([1]; Pilo alone 0.5%, 2 hrs) was 5 J and 3 J, the “nVA” value ([1]; Pilo alone 0.5%, 4 hrs) was 5 J and 3 J and the Pupil ([2]; Pilo alone 0.25%, 1 hr) was 3 and 3.5 and 2.5 and 3.3. The Pupil ([2]; Pilo alone 0.25%, 2 hrs) was 4 and 3.5 and 3, the Pupil ([2]; Pilo alone 0.25%, 4 hrs) was 4 and the Pupil ([2]; Pilo alone 0.5%, 1 hr) was 2.5 and 3.8 and 3. The Pupil ([2]; Pilo alone 0.5%, 2 hrs) was 3 and 4 and 2.5 and 3.3, the Pupil ([2]; Pilo alone 0.5%, 4 hrs) was 3.3 and 4 and 3 and 4.2 and the Pupil ([2]; Pilo alone 1%, 1 hr) was 2.5 and 1.5 and 3. For the same compound, the Pupil ([2]; Pilo alone 1%, 2 hrs) was 3 and 1.5 and 2.5 and the Pupil ([2]; Pilo alone 1%, 4 hrs) was 4 and 2.5 and 3.

For `Brc1c(NC2=NCCN2)ccc2nccnc12` [brimonidine], the “effect on the pupil (potentiation of pilocarpine)” value ([2]; brimonidine combined with pilocarpine) was “potentiates the effect of pilocarpine on the pupil”.
